Data set [1] has as its system p53. The data set can be described thus: RT-PCR, p53 mRNA expression in MCF-7 cells. It counts as cell-based, human. As to conditions: MCF-7, 10, 20 and 30 µM, 24 h, compared to control, β-actin internal control. Here is the method:
(§1) MCF-7 cells were cultured with different concentrations (10, 20 and 30 µM) of compounds 6 and 10 for 24 h, and the untreated cells were used as a control. The cells were lysed using Trizol reagent (Invitrogen, USA). Total RNA was extracted as per the manufacturer’s instructions. Total RNA was quantitated by taking 2 µL of resuspended RNA on a Nano drop spectrophotometer (Thermo Scientific, USA) and reverse transcribing an equal amount (1 µg) of RNA to make complementary deoxyribonucleic acid (cDNA) using a Super Script VILO cDNA synthesis Kit (Invitrogen), as per the manufacturer’s protocol, in a final volume of 20 µL. The mixture was incubated at 42 °C for 1 h. The generated cDNA (2 µL) was used to assess the mRNA expression of apoptotic genes, including caspase-7, Bax, Bcl-2, and p53. The actin gene was used as an internal control. RT-PCR was performed using 5x Firepol Master Mix ready to load (Solis BioDyne, Tartu, Estonia), as per the manufacturer’s instructions. The program was run as follows: initial denaturation at 95 °C for 5 min, denaturation at 95 °C for 30 s, annealing at 55 °C for 45 s, elongation at 72 °C for 45 s (30 cycles), and final extension at 72 °C for 10 min. The RT-PCR products were electrophoresed on a 1.2% agarose gel containing ethidium bromide, and the gel was imaged on a Licor machine.

Data set [2] concerns HUVEC (normal human umbilical vein endothelial cells). In words: MTT cytotoxicity assay, HUVEC. It counts as cell-based. The settings on record: Homo sapiens, HUVEC, 48 h treatment, mean ± SD (n = 3), NA = no activity. On the procedure:
(§2) The MTT assay was performed to test the antiproliferative activity of the synthesised compounds, as per the methodology described by Alqahtani and co-workers[35]. Briefly, A549, HepG2, LoVo, MCF-7 and HUVEC cell lines were seeded in 96-cell culture plates (5 × 10^4 per well) and allowed 24 h for adherence. The cells were then treated with different concentrations of each compound, and 5-fluorouracil was used as a positive control. Following the treatment period (48 h), 10 µL of MTT solution (5 mg/mL) was added to each well and the plates were incubated at 37 °C for 2–4 h. Isopropanol (100 µL) acidified with 0.1 N HCl was added to solubilise the formazan products and the plate was kept on a shaker for 10 min. The optical density of each mixture was measured at 570 nm using an enzyme-linked immunosorbent assay plate reader (ELISA plate reader, Bio-Tek, USA). The concentrations of tested compounds required to inhibit cell growth by 50% (IC50) were calculated using a dose-response curve. Cell survival was calculated using the following equation: Cell survival (%)=(OD of treated sample)/(OD of untreated sample)×100
In general terms: Formazan colour is commonly taken as a measure of viable cells.

Data set [3] deals with Bax. In words: RT-PCR, Bax mRNA expression in MCF-7 cells. The format is cell-based, human. The settings on record: MCF-7, 10, 20 and 30 µM, 24 h, compared to control, β-actin internal control. Here is the method: as §1
For data set [4], the system named is caspase-7. The data set can be described thus: RT-PCR, caspase-7 mRNA expression in MCF-7 cells. It counts as cell-based, human. As to conditions: MCF-7, 10, 20 and 30 µM, 24 h, compared to control, β-actin internal control. Here is the method:
as §1

The subject of data set [5] is p53. The data set can be described thus: Western blot, p53 protein level in MCF-7 cells. It counts as cell-based, human. As to conditions: MCF-7, 10, 20 and 30 μM, 24 h, β-actin internal control. Here is the method: (§3) MCF-7 cells were treated with compounds 6 and 10 for 24 h. The cells were then harvested and washed twice with 1x PBS, by adding lysis buffer containing 20 mM Tris (pH 7.5), 150 mM NaCl, 1 mM sodium ethylenediaminetetraacetic acid, 1 mM ethylene glycol-bis (β-aminoethyl ether)-N,N,N′,N′-tetraacetic acid, 1% Triton X100, 1 µg/mL leupeptin, and 100 µM phenylmethylsulphonyl fluoride, to prepare the total cell extract. The lysate was cooled on ice for 1 h and clarified by centrifugation at 13000 rpm at 4 °C for 15 min. The supernatants were collected. The protein concentrations of all the samples were determined using Bradford reagent (BioRad, Hercules, CA, USA). For western blot analysis, 30 − 35 µg of the total protein was loaded onto 10% sodium dodecyl sulphate-polyacrylamide gel and then transferred to a polyvinylidene fluoride membrane. The membrane was blocked with 5% bovine serum albumin in 0.1% Tween-tris-buffered saline (TBST) buffer for 2 h at room temperature, and then washed thrice with TBST. The membrane was incubated with primary antibodies for Bcl-2, p53, caspase7, Bax, and β-actin (1:200, Santa Cruz Biotechnology). […] It was then ready for immunodetection; the membrane was incubated with enhanced chemiluminescence western blotting detection reagents (Amersham, Pharmacia Biotech Inc., Piscataway, NJ, USA) and bands were obtained on exposing to X-ray films (Amersham).
(In western blotting, separated proteins are transferred to a membrane and probed.)

Data set [6] deals with MCF-7 cells. The data set can be described thus: Annexin V-FITC/PI apoptosis assay by flow cytometry. It counts as cell-based, human. The settings on record: 24 h, average ± SD, control 2.9 ± 0.84% (6) / 3.3 ± 0.28% (10). On the procedure: Apoptosis was measured using the Annexin V/PI detection kit (BioLegend, CA, USA), as per the manufacturer’s instructions. Briefly, MCF-7 cells were treated with different concentrations (10, 20 and 30 µM) of compounds 6 and 10 for 24 h. After treatment, the detached and adherent cells were collected, washed, and resuspended in 100 µL of 1X binding buffer. Then, 5 µL of Annexin V and 5 µL of PI were added to the resuspended cells. After incubating for 15 min in the dark, 400 µL of binding buffer was added to each tube and cell samples were analysed using Cytomics FC 500 (Beckman Coulter, Brea, CA, USA). Data collection and analysis were conducted using the CXP software V. 3.0 (Aspect, Phoenix, AZ, USA).
On the technique in general: Flow cytometry measures light scatter and fluorescence of single cells or particles in a stream.

Data set [7] relates to A549 cells (non-small cell lung carcinoma). The data set can be described thus: MTT cytotoxicity assay, A549. The format is cell-based. The settings on record: Homo sapiens, A549, 48 h treatment, mean ± SD (n = 3), NA = no activity. On the procedure: as §2
For data set [8], the system named is Bcl-2. The data set can be described thus: RT-PCR, Bcl-2 mRNA expression in MCF-7 cells. It counts as cell-based, human. As to conditions: MCF-7, 10, 20 and 30 µM, 24 h, compared to control, β-actin internal control. Here is the method:
as §1

The test system of data set [9] is Bcl-2. In words: Western blot, Bcl-2 protein level in MCF-7 cells. The format is cell-based, human. As to conditions: MCF-7, 10, 20 and 30 μM, 24 h, β-actin internal control. Here is the method: as §3
Data set [10] deals with Bax. In words: Western blot, Bax protein level in MCF-7 cells. As to conditions: MCF-7, 10, 20 and 30 μM, 24 h, β-actin internal control. It counts as cell-based, human. On the procedure:
as §3

The test system of data set [11] is MCF-7 cells (human breast cancer cell line). In words: MTT cytotoxicity assay, MCF-7. The format is cell-based. The settings on record: Homo sapiens, MCF7, 48 h treatment, mean ± SD (n = 3), NA = no activity. On the procedure:
as §2

Data set [12] concerns HepG2 cells (liver cancer). In words: MTT cytotoxicity assay, HepG2. The format is cell-based. The settings on record: Homo sapiens, HepG2, 48 h treatment, mean ± SD (n = 3), NA = no activity. Here is the method: as §2
The test system of data set [13] is MCF-7 cells. The data set can be described thus: Cell cycle analysis by flow cytometry (propidium iodide). It counts as cell-based, human. The settings on record: 24 h, average ± SD, control 0.75 ± 0.07%. Here is the method: Cell cycle analysis was conducted as previously described by Alqahtani and co-workers[35]. Briefly, MCF-7 cells were seeded in 6-well plates and incubated for 24 h before the addition of various concentrations (10, 20 and 30 µM) of compounds 6 and 10. After incubating for 24 h, the cells were harvested, washed, and resuspended in PBS. The cells were fixed with 70% ethanol at 4 °C for 4 h. The cells were then incubated with RNase (100 µg/mL) and PI (50 µg/mL) for 30 min in the dark. Flow cytometry analysis was performed using Cytomics FC 500 (Beckman Coulter, Brea, CA, USA).

The test system of data set [14] is caspase-7. The data set can be described thus: Western blot, caspase-7 protein level in MCF-7 cells. It counts as cell-based, human. As to conditions: MCF-7, 10, 20 and 30 μM, 24 h, β-actin internal control. Here is the method:
as §3

Data set [15] relates to LoVo cells (colon cancer). The data set can be described thus: MTT cytotoxicity assay, LoVo. The format is cell-based. The settings on record: Homo sapiens, LoVo, 48 h treatment, mean ± SD (n = 3), NA = no activity. Here is the method: as §2

Molecules are shown by their SMILES.

These results are taken from PMC8667930, “Novel sulphonamide-bearing methoxyquinazolinone derivatives as anticancer and apoptosis inducers: synthesis, biological evaluation and in silico studies” (Journal of Enzyme Inhibition and Medicinal Chemistry, 2021).

The IC50 is the point on the concentration scale where inhibition reaches its midpoint. Lower therefore signals inhibition by little substance. The term melting point denotes the temperature of the solid-liquid transition.

On to `COc1cccc2c(=O)n(-c3ccc(S(N)(=O)=O)cc3)c(SCC(=O)Nc3ccccc3C)nc12` [Compound 6, 2-((8-Methoxy-4-oxo-3-(4-sulphamoylphenyl)-3,4-dihydroquinazolin-2-yl)thio)-N-(o-tolyl) acetamide], for which the melting point was > 350 °C. In the data set with p53 [1], the “expression of p53 mRNA” value is listed as “increased”. For the same compound, the IC50 in data set [2] is 88.27 ± 0.32 µM. Further, the “expression of Bax mRNA” value in the data set on Bax [3] is on record as “increased”. Further, in the data set on caspase-7 [4], the “expression of caspase-7 mRNA” value was “increased”. Further, the p53 protein level entry with p53 [5] is listed as “markedly increased”. The “proportion of cells in early apoptosis” value in the data set with MCF-7 cells [6] (MCF-7, 10 µM) was 7.6 ± 1.4%. Further, the “proportion of cells in early apoptosis” value in the data set with MCF-7 cells [6] (MCF-7, 20 µM) is 11.4 ± 1.97%. Also, the “proportion of cells in early apoptosis” value with MCF-7 cells [6] (MCF-7, 30 µM) is reported as 18.35 ± 2.4%. In data set [7], this compound gave an IC50 of 51.5 ± 1.36 µM. In the data set on Bcl-2 [8], the “expression of Bcl-2 mRNA” value is recorded as “downregulated”. For the same compound, the Bcl-2 protein expression entry in the data set with Bcl-2 [9] was “down-regulated”. For the same compound, the Bax protein level entry with Bax [10] is “markedly increased”. Also, in data set [11], inhibition was half-maximal at 20.2 ± 0.6 µM (IC50). For the same compound, the IC50 in [12] was 45.6 ± 0.71 µM. The “proportion of sub-G1 phase cells” value in the data set on MCF-7 cells [13] (MCF-7, 10 µM) is 3.35 ± 0.07%. The “proportion of sub-G1 phase cells” value with MCF-7 cells [13] (MCF-7, 20 µM) is recorded as 7.8 ± 0.14%. In addition, the “proportion of sub-G1 phase cells” value in the data set with MCF-7 cells [13] (MCF-7, 30 µM) is listed as 22.85 ± 1.2%. The caspase-7 protein level result in the data set on caspase-7 [14] is given as “markedly increased”. In data set [15], this compound had an IC50 of 22.6 ± 0.86 µM.
Consider `CCc1cccc(NC(=O)CSc2nc3c(OC)cccc3c(=O)n2-c2ccc(S(N)(=O)=O)cc2)c1` [Compound 10, N-(3-Ethylphenyl)-2-((8-methoxy-4-oxo-3-(4-sulphamoylphenyl)-3,4-dihydroquinazolin-2-yl)thio) acetamide], for which the melting point fell in the range of 292 to 294 °C. Also, in the data set on p53 [1], the “expression of p53 mRNA” value is “increased”. The IC50 in data set [2] is 32 ± 1.47 µM. Moreover, in the data set with Bax [3], the “expression of Bax mRNA” value is recorded as “increased”. Further, the “expression of caspase-7 mRNA” value with caspase-7 [4] is “increased”. Also, the p53 protein level entry in the data set on p53 [5] is “markedly increased”. In the data set on MCF-7 cells [6] (MCF-7, 10 µM), the “proportion of cells in early apoptosis” value turned out to be 9.55 ± 0.2%. Further, in the data set with MCF-7 cells [6] (MCF-7, 30 µM), the “proportion of cells in early apoptosis” value stood at 16 ± 0.84%. In data set [7], the 50% inhibitory concentration (IC50) amounted to 48 ± 2.78 µM. The “expression of Bcl-2 mRNA” value in the data set on Bcl-2 [8] is “downregulated”. Besides, the Bcl-2 protein expression result in the data set with Bcl-2 [9] was “down-regulated”. The Bax protein level result in the data set on Bax [10] was “markedly increased”. Moreover, the half-inhibitory concentration (IC50) in [11] was 20.9 ± 0.4 µM. The half-inhibitory concentration (IC50) in data set [12] was 42.3 ± 1.59 µM. Also, the “proportion of sub-G1 phase cells” value in the data set on MCF-7 cells [13] (MCF-7, 10 µM) was found to be 4.3 ± 0.28%. The “proportion of sub-G1 phase cells” value in the data set on MCF-7 cells [13] (MCF-7, 30 µM) is 30.6 ± 0.07%. For the same compound, the caspase-7 protein level entry with caspase-7 [14] is listed as “markedly increased”. In [15], this compound had an IC50 of 22.3 ± 2.26 µM.
